Reference: EP0801071A1, “LEWIS X DERIVATIVE AND PROCESS FOR PRODUCING THE SAME” (SUMITOMO PHARMACEUTICALS COMPANY, LIMITED, priority 1994, dated 1996)
pIC50: −log10 of the molar value.

biological target: T1, rsE-selectin (Homo sapiens, UniProt P16581); test: Inhibition of adhesion of HL-60 cells to plate-coated rsE-selectin (Experiment 2); format: cell-based; details: 50% inhibition concentration of adhesion of rsE-selectin to HL-60, from inhibition curves; medium-only well = 100%
T1 sequence (P16581 22-556 limits assumed): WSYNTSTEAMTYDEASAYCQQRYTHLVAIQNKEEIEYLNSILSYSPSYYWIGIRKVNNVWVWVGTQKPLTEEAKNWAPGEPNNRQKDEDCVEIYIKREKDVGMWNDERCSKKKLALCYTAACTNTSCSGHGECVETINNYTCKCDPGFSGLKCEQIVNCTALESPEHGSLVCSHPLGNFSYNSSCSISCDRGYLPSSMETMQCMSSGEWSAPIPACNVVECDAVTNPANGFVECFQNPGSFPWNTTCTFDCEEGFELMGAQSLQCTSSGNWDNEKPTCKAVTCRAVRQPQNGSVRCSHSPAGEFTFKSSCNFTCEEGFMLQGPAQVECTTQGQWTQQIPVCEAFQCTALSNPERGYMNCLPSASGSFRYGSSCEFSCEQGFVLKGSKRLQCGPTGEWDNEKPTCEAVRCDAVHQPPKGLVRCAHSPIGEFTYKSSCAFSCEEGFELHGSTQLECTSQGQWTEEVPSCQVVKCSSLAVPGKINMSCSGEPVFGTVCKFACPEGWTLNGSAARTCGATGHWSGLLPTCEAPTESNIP
Method: The DPBS solution containing rsE-selectin (3 µg/ml) was added to a 96 well plate at 50 µl/well, while wells filled with DPBS without rsE-selectin (non-specific adhesion control) were prepared on the same plate, and the plate was kept at room temperature for 3 hours. Then wells were washed 3 times with a DPBS/BSA solution at 200 µl/well, and DPBS/BSA solution was added at 200 µl/well, and the plate was kept at room temperature for 1 hour. After removing DPBS/BSA solution, a medium containing NWB or NWB plus a compound of the invention was added at 40 µl/well.
Frozen HL-60 cells were thawed promptly at 37°C, and washed with NWB cooled to 4°C 3 times by centrifugation at 1500rpm × 5 min. The cells were adjusted with NWB to 1×10^7 cells/ml, added to the plate at 20 µl/well, and the plate was kept at room temperature for 15 min.
The plate was set on a plate washer to remove nonadhesive HL-60 cells. The plate washer was set at slow mode, cycle 3 (washing 3 times), soak 0 sec., 12 rows (along vertical direction), and volume of NWB for 1 washing 200 µl/well at room temperature.
A citrate solution containing 0.1% NP-40 at room temperature was added at 50 µl/well, and the plate was kept at room temperature for 5 minutes. The substrate solution (4 mg OPDA, 4µl 30% H2O2/4 ml citrate) was added at 50 µl/well, protected from light with aluminum foil, allowed to develop color for 5 to 20 minutes, and the reaction was terminated by adding 4N-H2SO4 at 50µl/well. The substrate solution was used within 30 minutes after preparation.
The OD490 of each well was determined, and the OD490 value of the well for nonspecific adhesion was subtracted from the value of each well. The value found in a well containing only the medium was used as a control (100%) and the amount of adhesion in wells containing Compounds (15), (31), (33)-(40) or (41) of the invention was calculated by percent in terms of the values of the control. By drawing inhibition curves, 50% inhibition concentration (IC50) was determined.
The materials for the experiment were obtained from the following sources. rsE-selectin: producible by the method described in J. C. Poulson, J. Am. Chem. Soc., 117: 66-79 (1995). The sample of rsE-selectin used in the experiments was kindly supplied by the author. HL-60 : ATCC Corp. DPBS (Dulbecco Phosphate Buffered Saline) : GIBCO Corp. BSA (Bovine Serum Albumin) : Sigma Corp. HBSS (Hanks Balanced Salt Solution) : GIBCO Corp. OPDA (Ortho-phenylenediamine) : Sigma Corp. RPMI 1640 medium : GIBCO Corp. Bovine Fetal Serum : GIBCO Corp. Plate : Immulon. 2. (flat bottomed) : Dynatech Laboratories. Plate washer; Microplate Washer : Molecular Devices Corp.
A compound of the present invention was adjusted to 100mM with DPBS, and pH was adjusted to 7.1-7.4.
HL-60 was cultured in RPMI 1640 medium supplemented with 10% Bovine Fetal Serum. Using a cell freezing solution consisting of 80% RPMI 1640 medium + 10% Bovine Fetal Serum + 10% DMSO, HL-60 was frozen at 1.5 × 10^7 cells per a tube according to a conventional method, and stocked at -80°C. This was used under sterile condition.
Composition of DPBS/BSA was DPBS + 1% BSA.
Composition of NWB was HBSS + 10mM-HEPES + 0.2%glucose + 1%BSA+ 1mM-CaCl2. These two solutions are prepared under sterile condition.
The citrate solution was prepared by dissolving 2.33 g of citric acid and 9.20 g of Na2HPO4·12H2O in 500 ml of desalted water.

pIC50 | Compound
3.68 | CC(=O)N[C@H]1[C@H]([C@H](O)[C@H](O)CO)O[C@@](O[C@H]2[C@@H](O)[C@@H](CO)O[C@@H](O[C@H]3[C@H](O[C@@H]4O[C@@H](C)[C@@H](O)[C@@H](O)[C@@H]4O)[C@@H](NC(=O)c4ccc5ccccc5c4)[C@H](OCCOCc4ccccc4)O[C@@H]3CO)[C@@H]2O)(C(=O)O)C[C@@H]1O [Compound 33, 2-Benzyloxyethyl (5-acetamido-3,5-dideoxy-α-D-glycero-D-galacto-2-nonulopyranosylonic acid)-(2→3)-O-(β-D-galactopyranosyl)-(1→4)-O-[α-L-fucopyranosyl-(1→3)-O ]-(2-deoxy-2-naphthamido-β-D-glucopyranoside)]
3.96 | CC(=O)N[C@H]1[C@H]([C@H](O)[C@H](O)CO)O[C@@](O[C@H]2[C@@H](O)[C@@H](CO)O[C@@H](O[C@H]3[C@H](O[C@@H]4O[C@@H](C)[C@@H](O)[C@@H](O)[C@@H]4O)[C@@H](NC(=O)c4ccc5ccccc5c4)[C@H](OCCOCCOCCO)O[C@@H]3CO)[C@@H]2O)(C(=O)O)C[C@@H]1O [Compound 34, 2-[2-(2-Hydroxyethoxy)ethoxy]ethyl (5-acetamido-3,5-dideoxy-α-D-glycero-D-galacto-2-nonulopyra nosylonic acid)-(2→3)-O-(β-D-galactopyranosyl)-(1→4)-O-[α-L-fucopyranosyl-(1→3)-O]-(2-deoxy-2-paphthamido-β-D-glucopyranoside)]
3.96 | CC(=O)N[C@H]1[C@H]([C@H](O)[C@H](O)CO)O[C@@](O[C@H]2[C@@H](O)[C@@H](CO)O[C@@H](O[C@H]3[C@H](O[C@@H]4O[C@@H](C)[C@@H](O)[C@@H](O)[C@@H]4O)[C@@H](NC(=O)c4ccc5ccccc5c4)[C@H](OCCCc4ccccc4)O[C@@H]3CO)[C@@H]2O)(C(=O)O)C[C@@H]1O [Compound 36, 3-Phenylpropyl (5-acetamido-3,5-dideoxy-α-D-glycero-D-galacto-2-nonulopyranosylonic acid)-(2→3)-O-(β-D-galactopyranosyl)-(1→4)-O-[α-L-fucopyranosyl-(1→3)-O]-(2-deoxy-2-naphthamido-β-D-glucopyranoside)]
3.96 | CC(=O)N[C@H]1[C@H]([C@H](O)[C@H](O)CO)O[C@@](O[C@H]2[C@@H](O)[C@@H](CO)O[C@@H](O[C@H]3[C@H](O[C@@H]4O[C@@H](C)[C@@H](O)[C@@H](O)[C@@H]4O)[C@@H](NC(=O)c4ccc5ccccc5c4)[C@H](OCCCCCCCCCCCCO)O[C@@H]3CO)[C@@H]2O)(C(=O)O)C[C@@H]1O [Compound 37, 12-Hydroxydodecyl (5-acetamido-3,5-dideoxy-α-D-glycero-D-galacto-2-nonulopyranosylonic acid)-(2→3)-O-(β-D-galactopyranosyl)-(1→4)-O-[α-L-fucopyranosyl-(1→3)-O]-(2-deoxy-2-naphthamido-β-D-glucopyranoside)]
3.82 | COc1cc(CCCO[C@@H]2O[C@H](CO)[C@@H](O[C@@H]3O[C@H](CO)[C@H](O)[C@H](O[C@]4(C(=O)O)C[C@H](O)[C@@H](NC(C)=O)[C@H]([C@H](O)[C@H](O)CO)O4)[C@H]3O)[C@H](O[C@@H]3O[C@@H](C)[C@@H](O)[C@@H](O)[C@@H]3O)[C@H]2NC(=O)c2ccc3ccccc3c2)cc(OC)c1OC [Compound 38, 3-(3,4,5-Trimethoxyphenyl)propyl (5-acetamido-3,5-dideoxy-α-D-glycero-D-galacto-2-nonulopyranosylonic acid)-(2→3)-O-(β-D-galactopyranosyl)-(1→4)-O-[α-L-fucopyranosyl-(1→3)-O]-(2-deoxy-2-naphthamido-β-D-glucopyra noside)]
3.82 | CCCCCCCCCOc1cc(CCCO[C@@H]2O[C@H](CO)[C@@H](O[C@@H]3O[C@H](CO)[C@H](O)[C@H](O[C@]4(C(=O)O)C[C@H](O)[C@@H](NC(C)=O)[C@H]([C@H](O)[C@H](O)CO)O4)[C@H]3O)[C@H](O[C@@H]3O[C@@H](C)[C@@H](O)[C@@H](O)[C@@H]3O)[C@H]2NC(=O)c2ccc3ccccc3c2)cc(OC)c1OC [Compound 39, 3-(4,5-Dimethoxy-3-nonyloxyphenyl)propyl (5-acetamido-3,5-dideoxy-α-D-glycero-D-galacto-2-nonulopyra nosylonic acid)-(2→3)-O-(β-D-galactopyranosyl)-(1→4) -O-[α-L-fucopyranosyl-(1→3)-O]-(2-deoxy-2-naphthamido-β-D-g lucopyranoside)]
4.15 | CCCCCCCCCOc1c(OC)cc(CCCO[C@@H]2O[C@H](CO)[C@@H](O[C@@H]3O[C@H](CO)[C@H](O)[C@H](O[C@]4(C(=O)O)C[C@H](O)[C@@H](NC(C)=O)[C@H]([C@H](O)[C@H](O)CO)O4)[C@H]3O)[C@H](O[C@@H]3O[C@@H](C)[C@@H](O)[C@@H](O)[C@@H]3O)[C@H]2NC(=O)c2ccc3ccccc3c2)cc1OC [Compound 40, 3-(3,5-Dimethoxy-4-nonyloxyphenyl)propyl (5-acetamido-3,5-dideoxy-α-D-glycero-D-galacto-2-nonulopyra nosylonic acid)-(2→3)-O-(β-D-galactopyranosyl)-(1→4)-O-[α-L-fucopyranosyl-(1→3)-O]-(2-deoxy-2-naphthamido-β-D-glucopyranoside)]
3.96 | COc1cc(CCCO[C@@H]2O[C@H](CO)[C@@H](O[C@@H]3O[C@H](CO)[C@H](O)[C@H](O[C@]4(C(=O)O)C[C@H](O)[C@@H](NC(C)=O)[C@H]([C@H](O)[C@H](O)CO)O4)[C@H]3O)[C@H](O[C@@H]3O[C@@H](C)[C@@H](O)[C@@H](O)[C@@H]3O)[C@H]2NC(=O)c2ccccc2)cc(OC)c1OC [Compound 41, 3-(3,4,5-Trimethoxyphenyl)propyl (5-acetamido-3,5-dideoxy-α-D-glycero-D-galacto-2-nonulopyranosylonic acid)-(2→3)-O-(β-D-galactopyranosyl)-(1→4)-O-[α-L-fucopyranosyl-(1→3)-O]-(2-deoxy-2-benzamido-β-D-glucopyranoside)]
